Among the data in paper PMC12040169 (PLOS Biology, 2025) are viability values, retold here.

A short description of the data set: in vitro. The conditions noted are these: human, hela cells, % viability.

As a reminder, the viability is a read-out of living cells in per cent, often relative to untreated cells. With `CN(C)C(c1ccccc1)c1nnnn1C1CCCCC1` (centres unmarked) [CBK028032], the viability at 28.5 h, 10 µM worked out at 105%. As for `CC1(C)[C@H](Cc2cc(CO)on2)C[C@@H]1NS(=O)(=O)c1ccccc1` [CBK289234], the viability at 28.5 h, 10 µM stood at 86%. In the case of `CCOc1ccc(S(=O)(=O)N2CCC(C(=O)N3CCOCC3)CC2)cc1Cl` [CBK270288], the viability at 28.5 h, 10 µM was found to be 93.8%. Regarding `c1ccc(Oc2ccc(Nc3ccc(-c4cccc5cccnc45)cn3)cc2)cc1` [CBK037643], the viability at 28.5 h, 10 µM came out at 105%. Turning to `CC1CCCC(C)N1C(=O)Cn1ncc2cccn2c1=O` (centres unmarked) [CBK283680], the viability at 28.5 h, 10 µM is 101%. Consider `O=C(Nc1ccc(S(=O)(=O)N2CCCCC2)cc1)c1ccc(CN2CCOCC2)cc1` [CBK264002], for which the viability at 28.5 h, 10 µM was 111%.

Turning to `O=C(CN(c1ccccc1)S(=O)(=O)c1ccccc1[N+](=O)[O-])NC1CCCCC1` [CBK262328], the viability at 28.5 h, 10 µM stood at 89.3%.

`O=C(Cc1ccc2c(c1)CCC2)N1CCCCC1CN1CCOCC1` (centres unmarked) [CBK282704]: the viability at 28.5 h, 10 µM is 88.8%.

`Cc1ccc(C)c(-c2csc(NS(=O)(=O)c3cccc(C(=O)O)c3)n2)c1` [CBK296696]: the viability at 28.5 h, 10 µM worked out at 86.7%. On the same count and under the same terms, the result for `CC(=O)c1c(C)nn(CCC(=O)Nc2ccc(Cl)c(Cl)c2)c1C` [CBK269829] reads 99.3%; that for `O=C(O)C1CCC(CNS(=O)(=O)c2ccc(Br)cc2)CC1` (centres unmarked) [CBK027994], 86.1%. On the same count and under the same terms, next, `CC(C)CNC(=O)c1cccc(NC(=O)N2CCC2c2cccs2)c1` (centres unmarked) [CBK306927]: 99.9%. As to `COc1ccc(F)c(CNCC2CCN(C(=O)OC(C)(C)C)CC2)c1` [CBK056716], the viability at 28.5 h, 10 µM came to 95.9%. `Cc1nc(NS(=O)(=O)c2ccc(Oc3ccccc3)cc2)sc1C(=O)O` [CBK045566]: the viability at 28.5 h, 10 µM is 107%. On the same count and under the same terms, next, `CCC(Oc1cccc(Cl)c1)C(=O)NN1CCN(C)CC1` (centres unmarked) [CBK268135]: 116%; `CN(CC(=O)NCc1ccccn1)S(=O)(=O)c1ccc(Br)cc1` [CBK265127]: 94.4%. For `Cc1ccc(OCC(=O)Nc2cccc3nsnc23)c(C)c1` [CBK263816], the viability at 28.5 h, 10 µM worked out at 102%. On the same count and under the same terms, the result for `O=c1ccc(O)nn1CN1CCN(Cc2ccccc2)CC1` [CBK265539] reads 91.5%; that for `Cc1ccc(S(=O)(=O)Nc2cc(Sc3nc(C)cc(C)n3)c(O)c3ccccc23)cc1` [CBK263313], 79%. Turning to `COc1ccc(-c2nc(NC(=O)C3CC3)cnc2-c2cccc(C(F)(F)F)c2)cc1` [CBK036852], the viability at 28.5 h, 10 µM worked out at 98%. In the case of `O=C(NCCN1CCOCC1)c1ccc(NS(=O)(=O)c2ccccc2)cc1` [CBK270118], the viability at 28.5 h, 10 µM was 102%.

As for `N#Cc1ccc(CN2CCCCC2c2[nH]ncc2C(N)=O)c(Cl)c1` (centres unmarked) [CBK304261], the viability at 28.5 h, 10 µM turned out to be 91.4%. For `CCn1c(-c2nonc2NC(C)=O)nc2ccccc21` [CBK062645], the viability at 28.5 h, 10 µM stood at 80%. In the case of `COc1cc(Nc2cc(-c3cccc(N)c3)nc3ccnn23)cc(OC)c1OC` [CBK037236], the viability at 28.5 h, 10 µM worked out at 105%.

For the compound `O=C(C[n+]1ccccc1)c1ccccc1Cl` [CBK016283B], the viability at 28.5 h, 10 µM stood at 112%. On to `O=C(O)c1ccc(CN2CCOC[C@H]2c2nc(-c3ccc(F)cc3)c[nH]2)cc1` [CBK289304], for which the viability at 28.5 h, 10 µM worked out at 91.2%. Consider `O=C1NCC2(C/C=C/CCOc3ccccc31)CCN(C(=O)CCc1ccccc1)CC2` [CBK292017], for which the viability at 28.5 h, 10 µM was 71.2%. For the compound `NCCNC(=O)c1cc2cc(F)ccc2[nH]1` [CBK107345], the viability at 28.5 h, 10 µM was 95.8%. In the case of `CCOc1ccc2nc(SCCN3CCOCC3)sc2c1` [CBK005888], the viability at 28.5 h, 10 µM amounted to 89.6%. With `C#CCNC(=O)CC[C@H]1CNC(=O)[C@@H]2[C@@H](CCN2Cc2ccccc2)N1C` [CBK289034], the viability at 28.5 h, 10 µM turned out to be 101%. Take `Cc1cc(C(=O)Nc2ccc(S(=O)(=O)N3CC(C)OC(C)C3)cc2)c2ccccc2n1` (centres unmarked) [CBK295170]: the viability at 28.5 h, 10 µM was found to be 87.4%. Turning to `COc1cccc(Cc2c(C)nc3c(C(=O)NCC4COc5ccccc5O4)cnn3c2C)c1` (centres unmarked) [CBK162064], the viability at 28.5 h, 10 µM worked out at 111%. Still for that read-out and setting: the result for `CCN(CC)C(=O)C1CCCN(C2CCN(C(=O)c3c4ccccc4cc4ccccc34)CC2)C1` (centres unmarked) [CBK066966] reads 102%; that for `Cc1cc(C(=O)N(C)C2CCCCC2)no1` [CBK057375], 113%. Regarding `Cc1n[nH]c(-c2ccccc2NS(=O)(=O)c2cnn(C(C)C)c2)n1` [CBK306377], the viability at 28.5 h, 10 µM worked out at 84.1%.

Take `COc1cccc(OC)c1-c1cn2ccnc2c(N(C)CCN(C)C)n1` [CBK066398]: the viability at 28.5 h, 10 µM worked out at 97.3%. On the same count and under the same terms, next, `COc1ccc(CNC(=O)CN2C(=O)[C@@H]3CCCN3C(=O)c3ccccc32)cc1` [CBK286322]: 89.7%; `O=C(c1cc2c(s1)CCCC2)N1CCCCC1c1nnc(-c2nccc3ccccc23)o1` (centres unmarked) [CBK285577]: 61%; `Cc1nn2cc(-c3n[nH]cc3[N+](=O)[O-])cnc2c1C(N)=O` [CBK268957]: 87.4%. Still for that read-out and setting: the result for `CCCC(=O)c1ccc(S(=O)(=O)N2CCN(Cc3c[nH]nc3-c3cccs3)CC2)cc1` [CBK063160] reads 79.6%.

Turning to `COc1cc(Nc2cc(-c3ccc4c(c3)OCO4)ncn2)cc(OC)c1OC` [CBK090704], the viability at 28.5 h, 10 µM worked out at 101%.

On to `NC(=O)C1CCN(C(=O)c2cc3c(=O)n4ccccc4nc3s2)CC1` [CBK296938], for which the viability at 28.5 h, 10 µM is 89.9%. For `Cc1ccc(N2C(=O)CSC2c2ccc(Cl)cc2Cl)cc1` (centres unmarked) [CBK025673], the viability at 28.5 h, 10 µM came to 105%. For the compound `CC(C)c1cc(C(=O)N2CCNC(c3ccccc3)C2)nc2ncnn12` (centres unmarked) [CBK306533], the viability at 28.5 h, 10 µM came to 91.9%.

Regarding `CN(C)CCCNC(=O)c1ccc(/C=N/O)nc1` [CBK288489], the viability at 28.5 h, 10 µM came out at 121%. Take `CCCCCNC(=O)C1CCN(Cn2c(=O)oc3cc(Cl)ccc32)CC1` [CBK298290]: the viability at 28.5 h, 10 µM is 86.3%. Turning to `CN(C)C(=O)c1ccc(-c2ccc3c(c2)COC(C2CCN(C(=O)CC4CCCCC4)CC2)O3)cc1` (centres unmarked) [CBK149763], the viability at 28.5 h, 10 µM was 114%. With `CC(C)NC(=O)c1ccccc1Br` [CBK026505], the viability at 28.5 h, 10 µM turned out to be 86.2%.

In the case of `O=C(O)CCCC(=O)Nc1ccccc1-c1ccccc1` [CBK231405], the viability at 28.5 h, 10 µM came out at 94.9%.

For `CCNC(=O)CN1CCN(c2ccc(C#N)cc2C(F)(F)F)CC1` [CBK306112], the viability at 28.5 h, 10 µM was determined as 85%.

Consider `CC(=O)Nc1cccc(-c2ccc3c(c2)COC2(CCNCC2)O3)c1` [CBK060956], for which, for the setting “bulk resorufin, single well”, the viability at 28.5 h, 10 µM amounted to 94.5%.

With `Cc1cnc(Cl)c2ncn([C@H]3C[C@@H](O)[C@@H](CO)O3)c12` [CBK201234], the viability at 28.5 h, 10 µM came to 97.7%. Turning to `CS(=O)(=O)NCC(=O)N1CCC2(CCCCOc3ccccc3C(=O)NCCNC2=O)CC1` [CBK292123], the viability at 28.5 h, 10 µM is 112%. Turning to `CC(NC(=O)Cc1cccc(F)c1)c1nc2cccnc2n1C(C)C` (centres unmarked) [CBK283831], the viability at 28.5 h, 10 µM amounted to 98.5%. Turning to `COc1cnc(-c2cnn(C)c2)c(NC(=O)c2ccco2)n1` [CBK145329], the viability at 28.5 h, 10 µM amounted to 103%. On to `COc1ccc(CN2CC[C@H]3[C@@H](C2)[C@H](c2ccsc2)CN3C(=O)c2ccccc2)cc1` [CBK285614], for which the viability at 28.5 h, 10 µM is 97.6%.
